# Patent publication EP1054888B1 (priority 1998, dated 1999)
# Tests used:
# Experiment in all cases: microbe, parasite or virus in culture
# Format in all cases: cell-based
# Phytophthora infestans = details: read-out: MIC (Minimum Inhibitory Concentration) PHYTIN
# Leptosphaeria nodorum = details: Parastagonospora nodorum, read-out: MIC (Minimum Inhibitory Concentration) LEPTNO
# [1] = tested on: Magnaporthe grisea f. sp. oryzae; details: Pyricularia oryzae, read-out: MIC (Minimum Inhibitory Concentration) PYRIOR, Table II; total inhibition of mycelial growth, V8 juice nutrient solution, 6-12 days at 18-25°C, visual inspection
# Pyrenophora teres = details: read-out: MIC (Minimum Inhibitory Concentration) PYRNTE
# Alternaria solani = details: read-out: MIC (Minimum Inhibitory Concentration) ALTESO
# Botrytis cinerea = details: read-out: MIC (Minimum Inhibitory Concentration) BOTRCI
# Rhizoctonia solani = details: read-out: MIC (Minimum Inhibitory Concentration) RHIZSO
SMILES,MIC (Phytophthora infestans),MIC (Leptosphaeria nodorum),MIC [1],MIC (Pyrenophora teres),MIC (Alternaria solani),MIC (Botrytis cinerea),MIC (Rhizoctonia solani)
"CCCCCCc1c(-c2c(F)cccc2Cl)c(Cl)nc2ncnn12 [Example 1, 5-chloro-7-n-hexyl-6-(2-chloro-6-fluorophenyl)-1,2,4-triazolo[1,5a]pyrimidine]",100 µg/mL,12.5 µg/mL,1.56 µg/mL,3.13 µg/mL,–,–,–
"CC1CCC(c2c(-c3c(F)cccc3Cl)c(Cl)nc3ncnn23)CC1 (centres unmarked) [Example 2, 5-chloro-7-(4-methylcyclohexyl)-6-(2-chloro-6-fluorophenyl)-1,2,4-triazolo[1,5a]pyrimidine]",> 100 µg/mL,–,< 0.05 µg/mL,1.56 µg/mL,0.1 µg/mL,0.2 µg/mL,> 100 µg/mL
"CN1C=C(c2c(-c3c(F)cc(F)cc3F)c(Cl)nc3ncnn23)CCC1 [Example 6, 5-chloro-7-(N-methyl-2,3-dehydropiperid-3-yl)-6-(2,4,6-trifluorophenyl)-1,2,4-triazolo[1,5a]pyrimidine]",> 100 µg/mL,25 µg/mL,0.78 µg/mL,–,3.13 µg/mL,25 µg/mL,> 100 µg/mL
"COc1nc2ncnn2c(C2CCCCC2)c1-c1c(F)cccc1F [Example 7, 5-methoxy-7-cyclohexyl-6-(2,6-difluorophenyl)-1,2,4-triazolo[1,5a]pyrimidine]",> 100 µg/mL,> 100 µg/mL,1.56 µg/mL,> 100 µg/mL,1.56 µg/mL,12.5 µg/mL,> 100 µg/mL
CCCCc1c(-c2ccccc2C)c(Cl)nc2ncnn12 [Example 19],50 µg/mL,12.5 µg/mL,0.78 µg/mL,6.25 µg/mL,1.56 µg/mL,12.5 µg/mL,> 100 µg/mL
CCCCc1c(-c2ccccc2Cl)c(Cl)nc2ncnn12 [Example 20],> 100 µg/mL,3.13 µg/mL,< 0.05 µg/mL,3.13 µg/mL,0.2 µg/mL,1.56 µg/mL,3.13 µg/mL
CCCCc1c(-c2ccccc2F)c(Cl)nc2ncnn12 [Example 21],100 µg/mL,3.13 µg/mL,< 0.05 µg/mL,0.78 µg/mL,0.1 µg/mL,1.56 µg/mL,3.13 µg/mL
CCCCc1c(-c2c(F)cccc2F)c(Cl)nc2ncnn12 [Example 22],> 100 µg/mL,1.56 µg/mL,0.1 µg/mL,6.25 µg/mL,0.1 µg/mL,1.56 µg/mL,1.56 µg/mL
CCCCc1c(-c2ccccc2)c(Cl)nc2ncnn12 [Example 23],50 µg/mL,> 100 µg/mL,25 µg/mL,> 100 µg/mL,6.25 µg/mL,> 100 µg/mL,> 100 µg/mL
Fc1cccc(Cl)c1-c1c(F)nc2ncnn2c1C1CCCCC1 [Example 37],> 100 µg/mL,> 100 µg/mL,–,> 100 µg/mL,–,–,> 100 µg/mL
COc1nc2ncnn2c(C2CCCCC2)c1-c1c(F)cc(F)cc1F [Example 49],> 100 µg/mL,> 100 µg/mL,0.39 µg/mL,1.56 µg/mL,0.2 µg/mL,–,> 100 µg/mL
COc1cc(F)c(-c2c(Cl)nc3ncnn3c2C2CCCCC2)c(F)c1 [Example 68],> 100 µg/mL,0.39 µg/mL,< 0.05 µg/mL,–,< 0.05 µg/mL,< 0.05 µg/mL,0.78 µg/mL
COc1cc(F)c(-c2c(OC)nc3ncnn3c2C2CCCCC2)c(F)c1 [Example 69],> 100 µg/mL,1.56 µg/mL,< 0.05 µg/mL,–,< 0.05 µg/mL,< 0.05 µg/mL,3.13 µg/mL
Fc1cc(F)c(-c2c(Cl)nc3ncnn3c2[C@H]2CC[C@@H](F)CC2)c(F)c1 [Example 71],> 100 µg/mL,0.78 µg/mL,< 0.05 µg/mL,–,< 0.05 µg/mL,0.2 µg/mL,6.25 µg/mL
COc1cc(F)c(-c2c(Cl)nc3ncnn3c2C2CC=CCC2)c(F)c1 (centres unmarked) [Example 74],> 100 µg/mL,0.78 µg/mL,< 0.05 µg/mL,–,< 0.05 µg/mL,< 0.05 µg/mL,0.39 µg/mL
COc1nc2ncnn2c([C@H]2CC[C@@H](F)CC2)c1-c1c(F)cc(F)cc1F [Example 75],> 100 µg/mL,12.5 µg/mL,0.39 µg/mL,–,1.56 µg/mL,6.25 µg/mL,> 100 µg/mL
CC(=O)OC1CCC(c2c(-c3c(F)cc(F)cc3F)c(Cl)nc3ncnn23)CC1 (centres unmarked) [Example 84],> 100 µg/mL,12.5 µg/mL,3.13 µg/mL,–,3.13 µg/mL,12.5 µg/mL,100 µg/mL
COc1cc(F)c(-c2c(Cl)nc3ncnn3c2C2CCC(OC(C)=O)CC2)c(F)c1 (centres unmarked) [Example 85],25 µg/mL,6.25 µg/mL,0.78 µg/mL,–,0.78 µg/mL,1.56 µg/mL,> 100 µg/mL
COc1cc(F)c(-c2c(Cl)nc3ncnn3c2[C@H]2CC[C@@H](F)CC2)c(F)c1 [Example 87],> 100 µg/mL,0.39 µg/mL,< 0.05 µg/mL,–,< 0.05 µg/mL,< 0.05 µg/mL,> 100 µg/mL
COc1cc(F)c(-c2c(OC)nc3ncnn3c2[C@H]2CC[C@@H](F)CC2)c(F)c1 [Example 89],> 100 µg/mL,6.25 µg/mL,< 0.05 µg/mL,–,< 0.05 µg/mL,1.56 µg/mL,12.5 µg/mL
CCCc1c(-c2c(F)cc(OC)cc2F)c(Cl)nc2ncnn12 [Example 93],100 µg/mL,6.25 µg/mL,< 0.05 µg/mL,–,0.2 µg/mL,0.2 µg/mL,0.39 µg/mL
COc1cc(F)c(-c2c(Cl)nc3ncnn3c2CC(C)C)c(F)c1 [Example 94],> 100 µg/mL,3.13 µg/mL,< 0.05 µg/mL,–,0.1 µg/mL,0.2 µg/mL,0.2 µg/mL
COc1cc(F)c(-c2c(Cl)nc3ncnn3c2C2CCCO2)c(F)c1 (centres unmarked) [Example 95],100 µg/mL,3.13 µg/mL,0.1 µg/mL,–,0.2 µg/mL,0.78 µg/mL,3.13 µg/mL
CCCCc1c(-c2c(F)cc(OC)cc2F)c(Cl)nc2ncnn12 [Example 96],> 100 µg/mL,3.13 µg/mL,< 0.05 µg/mL,–,< 0.05 µg/mL,0.1 µg/mL,0.78 µg/mL
COc1cc(F)c(-c2c(Cl)nc3ncnn3c2C2CCCC2)c(F)c1 [Example 97],> 100 µg/mL,6.25 µg/mL,0.1 µg/mL,–,< 0.05 µg/mL,0.2 µg/mL,0.39 µg/mL
CCCc1c(-c2c(F)cc(OC)cc2F)c(OC)nc2ncnn12 [Example 98],> 100 µg/mL,100 µg/mL,0.2 µg/mL,–,1.56 µg/mL,3.13 µg/mL,1.56 µg/mL
COc1cc(F)c(-c2c(OC)nc3ncnn3c2C2CCCC2)c(F)c1 [Example 99],> 100 µg/mL,> 100 µg/mL,0.39 µg/mL,–,0.39 µg/mL,0.78 µg/mL,1.56 µg/mL
COc1cc(F)c(-c2c(OC)nc3ncnn3c2CC(C)C)c(F)c1 [Example 100],> 100 µg/mL,> 100 µg/mL,< 0.05 µg/mL,–,0.39 µg/mL,0.78 µg/mL,1.56 µg/mL
